Data on three molecules can be found in article PMC11643744, “New Conjugates of Vancomycin with Cell-Penetrating Peptides—Synthesis, Antimicrobial Activity, Cytotoxicity, and BBB Permeability Studies” (Molecules, 2024).

For data set [1], the system named is E. faecium VRE (clinical isolate UCK 7979384). Put plainly: microbe, parasite or virus in culture. The class given is cell-based. Particulars: read-out: MIC E. faecium VRE. As for the experimental part: (§1) The antimicrobial activity of the synthesized compounds was evaluated against four reference bacterial strains: Staphylococcus aureus (ATCC 29213), Enterococcus faecalis (ATCC 29212), Escherichia coli (ATCC 25922), and Pseudomonas aeruginosa (ATCC 27853), which are commonly used for determining antibacterial activity. In addition, two clinical strains, S. aureus (MRSA) and E. faecium (VRE), were included in the study. The bacterial strains were inoculated from Selectrol discs (Biomaxima SA, Lublin, Poland) onto blood agar (Graso Biotech, Starogard Gdański, Poland) and incubated at 37 °C for 24 h. Before testing, the strains were cultured aerobically on blood agar at 37 °C for 24 h.
(§2) The susceptibility of microorganisms to the synthesized compounds was determined using the broth microdilution assay, following the guidelines outlined by CLSI [30]. The final concentrations of the tested compounds in Mueller–Hinton broth, in 96-well plates (VWR International Sp. z o.o., Gdańsk, Poland), ranged from 0.125 to 256 mg/L. To prepare the bacterial suspension, bacteria from the overnight culture on blood agar were diluted in sterile 0.9% NaCl to achieve a turbidity equivalent to a 0.5 McFarland standard. The adjusted inoculum suspension was further diluted in Mueller–Hinton broth so that after inoculation, each well contained approximately 5 × 10^5 CFU/mL. Aliquots (5 µL) of bacterial suspension were added to each solution. The sterility control (containing the broth) and the growth control (containing the reference strain in broth without the tested compound) were also set up. The antibiotics vancomycin and gentamicin were used as a control. The plates were incubated at 37 °C under aerobic conditions. The results are expressed as the MIC of the tested compounds, which was defined as the lowest concentration at which no visible growth of bacteria (no turbidity) was observed. The assay was performed in triplicate.

Data set [2] has as its system S. aureus MRSA (clinical isolate no 203). Put plainly: microbe, parasite or virus in culture. The class given is cell-based, Staphylococcus aureus. To be noted: read-out: MIC S. aureus MRSA. As for the experimental part:
as §1, §2

In a further data set the test system is S. aureus ATCC 29213. Put plainly: microbe, parasite or virus in culture. The class given is cell-based, Staphylococcus aureus. As for the experimental part:
as §1, §2

Data set [3] deals with Pseudomonas aeruginosa (ATCC 27853). The experiment in a line: Broth microdilution MIC, P. aeruginosa reference strain. The class given is cell-based. As for the experimental part: as §1
The susceptibility of microorganisms to the synthesized compounds was determined using the broth microdilution assay, following the guidelines outlined by CLSI [30]. The final concentrations of the tested compounds in Mueller–Hinton broth, in 96-well plates (VWR International Sp. z o.o., Gdańsk, Poland), ranged from 0.125 to 256 mg/L. To prepare the bacterial suspension, bacteria from the overnight culture on blood agar were diluted in sterile 0.9% NaCl to achieve a turbidity equivalent to a 0.5 McFarland standard. […] The results are expressed as the MIC of the tested compounds, which was defined as the lowest concentration at which no visible growth of bacteria (no turbidity) was observed. […]

The subject of a further data set is E. faecalis ATCC 29212. Put plainly: microbe, parasite or virus in culture. The class given is cell-based, Enterococcus faecalis. As for the experimental part: as §1, §2
Another data set relates to E. coli ATCC 25922. The experiment in a line: microbe, parasite or virus in culture. The class given is cell-based, Escherichia coli. To be noted: reference strain. As for the experimental part:
as §1, §2

Another data set concerns S. aureus (ATCC 29213). The experiment in a line: Checkerboard assay, interaction of Van with CPP components (FICI). To be noted: Van alone. The class given is cell-based, Staphylococcus aureus.
Data set [4] deals with normal human fibroblasts, BJ line (CRL-2522). Put plainly: Neutral red cytotoxicity assay. Particulars: 24 h. The procedure:
Normal human fibroblasts, BJ line (CRL-2522™), Eagle’s Minimum Essential Medium (EMEM), and fetal bovine serum (FBS) were obtained from ATCC (Manassas, VA, USA). Cells were grown following ATCC guidelines in an EMEM medium supplemented with 10% FBS at 37 °C in a humidified atmosphere of 95% air and 5% CO2 in a HeraCell 150 incubator (Heraeus, Hanau, Germany).
The assay was performed as per previously published protocols with slight modifications. In brief, BJ cells were plated in 96-well tissue culture plates (Nest Scientific Biotechnology, Wuxi, China) at a density of 6 × 10^3 cells per well and allowed to attach for 24 h in EMEM supplemented with 10% FBS. After the incubation period, the medium was removed, and 10% dimethyl sulfoxide (DMSO)-treated cells (Sigma-Aldrich, St. Louis, MO, USA) were used as a positive control, while nontreated cells served as a negative control.
The cells were treated with peptides suspended in EMEM medium supplemented with 10% FBS and incubated for 24 h at 37 °C in a humidified atmosphere of 95% air and 5% CO2. After the incubation, the supernatants were discarded and replaced with 100 µL of non-supplemented EMEM containing 0.33% neutral red (Sigma-Aldrich) diluted 1:40. The cells were incubated for an additional 2 h at 37 °C. Following incubation, the neutral red medium was removed, and the cells were washed with 100 µL of phosphate-buffered saline (PBS) per well.
To extract the dye into the solution, the cells were treated with 150 µL of a solution containing 50% ethanol (Alchem, Torun, Poland), 49% distilled H2O, and 1% acetic acid (Alchem, Torun, Poland) and incubated under shaking at 37 °C for 10 min. Absorbance was measured at 540 nm using a Synergy H1 plate reader (BioTek Instruments, Winooski, VT, USA). The assay was performed in triplicate to ensure reproducibility.

A further data set can be described thus: PAMPA-BBB assay. Particulars: 20 h incubation, mean ± SEM. An excerpt:
This assay utilized a 96-well plate assembly consisting of a filter plate pre-coated with polar brain lipids (donor plate) and a receiver plate (acceptor plate). The phospholipid mixture used to coat the membrane was extracted from porcine polar brain lipids, with the following composition: 12.6% phosphatidylcholine, 33.1% phosphatidylethanolamine, 18.5% phosphatidylserine, 4.1% phosphatidylinositol, 0.8% phosphatidic acid, and 30.9% of other compounds, including cerebrosides, sulfatides, and pigments.
In each well of the donor filtration plate (Multiscreen Filter Plate, PVDF with a pore size of 0.45 µm), 5 µL of the phospholipid mixture in n-dodecane (20 mg/mL) was carefully applied to form the artificial membrane. After coating, 200 µL of phosphate-buffered saline (PBS at pH 7.4) containing 5% dimethyl sulfoxide (DMSO) as a co-solvent, and the test compound (at a concentration of 20 µM) was added to each well of the donor plate (in triplicate). […] The plate lid was then replaced and the resulting assembled donor–acceptor plates were incubated at room temperature for 20 h. After this time, the donor plate was removed and solutions from each well of both acceptor and donor plates were collected for further analysis. The concentrations of the tested compounds were determined by LC-MS. The analysis was conducted by UHPLC-MS system (Shimadzu Nexera X2 with LCMS-2020 detector) using a ReproSil Pure 120 ODS-3 column (Dr. Maisch GmbH, 100 × 2 mm, 2.4 µm particle size) with several gradients of ACN with 0.1% FA and 0.05% TFA at a flow rate of 0.3 mL/min. The eluted solution was monitored by an ESI-MS detector operated in a selected ion monitoring mode (SIM). […] CE=CD×VD+CA×VA/VD+VA

Converted amounts (≈) assume the structure as drawn. “And” between values parts separate entries of the source, which are not always exact repeats. Equal entries are not always repeated. Where two headings read alike, the source gives them in different places.

Procedure for S. aureus (ATCC 29213): To determine possible interactions between Van and the CPP components of the conjugates, fractional inhibitory concentrations (FICs) were calculated for the tested compounds (Prop-Tat (47–57) and Prop-Arg9) using the following formula: FICA = MICA(with B)/MICA, FICB = MICB(with A)/MICB. To determine MICA(with B) and MICB(with A), a checkerboard assay was carried out in 96-well microtiter plates. Each test was performed in duplicate. The concentration range was 1.07 to 8 µg/mL for Van, 2.13 to 16 µg/mL for Prop-Tat (47–58), and 8.54 to 64 µg/mL for Prop-Arg9. Aliquots of 5 μL of bacterial suspension (at a concentration of 10^7 CFU/mL) were added to each well of the 96-well plate containing 100 μL of test compounds in Mueller–Hinton broth. The bacterial strain used was S. aureus (ATCC 29213). The plates were then incubated at 37 °C for 24 h. […] FIC values for Van, Prop-Tat (47–57) and Prop-Arg9 were calculated as follows: FICVan = MICVan+Prop-Tat (47–57) or FICVan = MICVan+Prop-Arg9 divided by MIC of Van alone, FICProp-Tat (47–57) = MICProp-Tat (47–57)+Van divided by MIC of Prop-Tat (47–57) alone, and FICProp-Arg9 = MICProp-Arg9+Van divided by MIC of Prop-Arg9 alone. The FIC indexes (FICIs) were calculated for the tested compounds as the sum of FICA and FICB.

Turning to `CNC(C)C1CCC(N)C(OC2C(N)CC(N)C(OC3OCC(C)(O)C(NC)C3O)C2O)O1` (stereo not shown) [Gentamicin], the MIC was 7.8 µg/mL and 16.3 µM in data set [1] (Enterococcus faecium, VRE, vancomycin-resistant clinical isolate UCK 7979384); 0.48 µg/mL and 1 µM in [2] (Staphylococcus aureus, methicillin-resistant clinical isolate no 203); 0.24 µg/mL and 0.5 µM in the data set on S. aureus ATCC 29213 (Staphylococcus aureus, ATCC29213, reference strain, read-out: MIC S. aureus ATCC 29213); 4.08 µM (≈ 1.95 µg/mL) in [3] (Pseudomonas aeruginosa, ATCC27853, reference strain); 7.8 µg/mL and 16.3 µM with E. faecalis ATCC 29212 (Enterococcus faecalis, ATCC29212, reference strain, read-out: MIC E. faecalis ATCC 29212); 1.95 µg/mL and 4.08 µM in the data set on E. coli ATCC 25922 (Escherichia coli, ATCC25922).

In the case of `CN[C@H](CC(C)C)C(=O)N[C@H]1C(=O)N[C@@H](CC(N)=O)C(=O)N[C@H]2C(=O)N[C@H]3C(=O)N[C@H](C(=O)N[C@H](C(=O)O)c4cc(O)cc(O)c4-c4cc3ccc4O)[C@H](O)c3ccc(c(Cl)c3)Oc3cc2cc(c3O[C@@H]2O[C@H](CO)[C@@H](O)[C@H](O)[C@H]2O[C@H]2C[C@](C)(N)[C@H](O)[C@H](C)O2)Oc2ccc(cc2Cl)[C@H]1O` [Vancomycin], the MICA in the data set on S. aureus (ATCC 29213) is listed as 2 µg/mL. For the same molecule, the MIC was > 256 µg/mL and > 172 µM in data set [1] (Enterococcus faecium, VRE); 1.5 µg/mL and 1.01 µM in [2] (Staphylococcus aureus); 2 µg/mL and 1.35 µM in the data set with S. aureus ATCC 29213 (Staphylococcus aureus, ATCC29213, read-out: MIC S. aureus ATCC 29213); 8 µg/mL and 5.38 µM with E. faecalis ATCC 29212 (Enterococcus faecalis, ATCC29212, read-out: MIC E. faecalis ATCC 29212). For the same molecule, the “concentration above which cytotoxicity was shown” value in [4] is listed as “above 16 µg/mL”. Moreover, in [4] (at concentrations up to 4 µg/mL), the “effect on cell viability” value is “did not substantially affect cell viability”. In data set [3] (at the concentrations tested), the “inhibitory activity against P. aeruginosa” value was “resistant”. Further, the “R, mass retention” value in “PAMPA-BBB assay” was determined as 11.3 ± 3.4%.

Regarding `C#CC(=O)N[C@@H](Cc1ccc(O)cc1)C(=O)NCC(=O)N[C@@H](CCCNC(=N)N)C(=O)N[C@@H](CCCCN)C(=O)N[C@@H](CCCCN)C(=O)N[C@@H](CCCNC(=N)N)C(=O)N[C@@H](CCCNC(=N)N)C(=O)N[C@@H](CCC(N)=O)C(=O)N[C@@H](CCCNC(=N)N)C(=O)N[C@@H](CCCNC(=N)N)C(=O)N[C@@H](CCCNC(=N)N)C(N)=O` [compound 4], the MIC turned out to be 19.9 µM (≈ 32.1 µg/mL) in data set [1] (vancomycin-resistant clinical isolate UCK 7979384); 19.9 µM (≈ 32.1 µg/mL) in data set [2] (methicillin-resistant clinical isolate no 203); 4.97 µM (≈ 8.01 µg/mL) with S. aureus ATCC 29213 (reference strain, read-out: MIC S. aureus ATCC 29213); 159 µM (≈ 256 µg/mL) with E. faecalis ATCC 29212 (reference strain, read-out: MIC E. faecalis ATCC 29212); 79.5 µM (≈ 128 µg/mL) in the data set on E. coli ATCC 25922. Further, in [4] (across the tested concentration range), the “effect on cell viability” value is “did not significantly affect cell viability”. Also, the “R, mass retention” value in the data set “PAMPA-BBB assay” is listed as 3.3 ± 0.7%.
